Experimental data from patent US20260042731A1, “(2,4-DICHLOROPHENOXY)ACETIC ACID ANALOGS” (CORTEVA AGRISCIENCE LLC, priority 2022, published 2026).
Read-outs that look alike come from different tables or passages of the source.

Assays:
[1] = test system: Amaranthus rudis (AMATA), tall water hemp; experiment: Postemergence herbicide evaluation, growth of Amaranthus rudis (AMATA); assay type: in vivo; settings: Amaranthus tuberculatus, post-emergence, read-out: Ave. AMATA, percent reduction in plant size relative to the untreated control; for pest or weed control at 280 g/ha: 280 g ae/ha; for pest or weed control at 560 g/ha: 560 g ae/ha
[2] = test system: Ambrosia artemisiifolia (AMBEL), common ragweed; experiment: Postemergence herbicide evaluation, growth of Ambrosia artemisiifolia (AMBEL); assay type: in vivo; settings: Ambrosia artemisiifolia, post-emergence, read-out: AVE. AMBEL, percent reduction in plant size relative to the untreated control; for pest or weed control at 280 g/ha: 280 g ae/ha; for pest or weed control at 560 g/ha: 560 g ae/ha
[3] = test system: Abutilon theophrasti (ABUTH), velvetleaf; experiment: Postemergence herbicide evaluation, growth of Abutilon theophrasti (ABUTH); assay type: in vivo; settings: Abutilon theophrasti, post-emergence, read-out: AVE. ABUTH, percent reduction in plant size relative to the untreated control; for pest or weed control at 280 g/ha: 280 g ae/ha; for pest or weed control at 560 g/ha: 560 g ae/ha
[4] = test system: Chenopodium album (CHEAL), common lambsquarters; experiment: Postemergence herbicide evaluation, growth of Chenopodium album (CHEAL); assay type: in vivo; settings: Chenopodium album, post-emergence, read-out: Ave. CHEAL, percent reduction in plant size relative to the untreated control; for pest or weed control at 280 g/ha: 280 g ae/ha; for pest or weed control at 560 g/ha: 560 g ae/ha
[5] = test system: glyphosate resistant Conyza canadensis (L.) (ERICA), horseweed; experiment: Postemergence herbicide evaluation, growth of Conyza canadensis (ERICA); assay type: in vivo; settings: Erigeron canadensis, post-emergence, read-out: Ave. ERICA, percent reduction in plant size relative to the untreated control; for pest or weed control at 280 g/ha: 280 g ae/ha; for pest or weed control at 560 g/ha: 560 g ae/ha
[6] = Volatility of compounds measured by thermogravimetric analysis (TGA); assay type: physicochemical
[7] = test system: weeds ABUTH, AMATA, AMBEL, CHEAL, ERICA; experiment: Postemergence herbicide evaluation, overall average % weed control (ABUTH, AMATA, AMBEL, CHEAL, ERICA); assay type: in vivo; settings: post-emergence, read-out: Overall Ave % Weed Control; for pest or weed control at 280 g/ha: 280 g ae/ha; for pest or weed control at 560 g/ha: 560 g ae/ha

`Cc1nccc(NC(=O)COc2ccc(Cl)cc2Cl)c1C` [Compound D26] gave a pest or weed control at 280 g/ha ([1]; 168 h, 7 DAA) of 72.5%, a pest or weed control at 560 g/ha ([1]; 168 h, 7 DAA) of 85% and a pest or weed control at 280 g/ha ([1]; 336 h, 14 DAA) of 88.5%. The pest or weed control at 560 g/ha ([1]; 336 h, 14 DAA) was 87.5%, the pest or weed control at 280 g/ha ([1]; 504 h, 21 DAA) was 75% and the pest or weed control at 560 g/ha ([1]; 504 h, 21 DAA) was 87.5%. It also gave a pest or weed control at 280 g/ha ([2]; 168 h, 7 DAA) of 75%, a pest or weed control at 560 g/ha ([2]; 168 h, 7 DAA) of 90% and a pest or weed control at 280 g/ha ([2]; 336 h, 14 DAA) of 70%. It also gave a pest or weed control at 560 g/ha ([2]; 336 h, 14 DAA) of 85%, a pest or weed control at 280 g/ha ([2]; 504 h, 21 DAA) of 100% and a pest or weed control at 560 g/ha ([2]; 504 h, 21 DAA) of 100%. For the same compound, the pest or weed control at 280 g/ha ([3]; 168 h, 7 DAA) was 42.5%, the pest or weed control at 560 g/ha ([3]; 168 h, 7 DAA) was 55% and the pest or weed control at 280 g/ha ([3]; 336 h, 14 DAA) was 52.5%. For the same compound, the pest or weed control at 560 g/ha ([3]; 336 h, 14 DAA) was 65%, the pest or weed control at 280 g/ha ([3]; 504 h, 21 DAA) was 62.5% and the pest or weed control at 560 g/ha ([3]; 504 h, 21 DAA) was 70%. The pest or weed control at 280 g/ha ([4]; 168 h, 7 DAA) was 75%, the pest or weed control at 560 g/ha ([4]; 168 h, 7 DAA) was 77.5% and the pest or weed control at 280 g/ha ([4]; 336 h, 14 DAA) was 85%. For the same compound, the pest or weed control at 560 g/ha ([4]; 336 h, 14 DAA) was 77.5%, the pest or weed control at 280 g/ha ([4]; 504 h, 21 DAA) was 92.5% and the pest or weed control at 560 g/ha ([4]; 504 h, 21 DAA) was 95%. The pest or weed control at 280 g/ha ([5]; 168 h, 7 DAA) was 57.5%, the pest or weed control at 560 g/ha ([5]; 168 h, 7 DAA) was 60% and the pest or weed control at 280 g/ha ([5]; 336 h, 14 DAA) was 91.5%. For the same compound, the pest or weed control at 560 g/ha ([5]; 336 h, 14 DAA) was 100%, the pest or weed control at 280 g/ha ([5]; 504 h, 21 DAA) was 62.5% and the pest or weed control at 560 g/ha ([5]; 504 h, 21 DAA) was 72.5%. For the same compound, the “TGA Data (rate of weight loss, volatility)” value [6] was 0.09713 µg/min, the pest or weed control at 280 g/ha ([7]; 168 h, 7 DAA) was 64.5% and the pest or weed control at 560 g/ha ([7]; 168 h, 7 DAA) was 73.5%. The pest or weed control at 280 g/ha ([7]; 336 h, 14 DAA) was 77.5%, the pest or weed control at 560 g/ha ([7]; 336 h, 14 DAA) was 83% and the pest or weed control at 280 g/ha ([7]; 504 h, 21 DAA) was 78.5%. It also gave a pest or weed control at 560 g/ha ([7]; 504 h, 21 DAA) of 85%.
